# Values of other authors, collected in US11589578B2, “Painting with biocides composition and/or prolonged release pesticides” (priority 2018, dated 2023).
# Like-named read-outs stand apart in the source and are kept apart here.
# Conditions: for Stability in aqueous media, in words: pH as stated in the value
smiles,measurement,setting,value
CCN(CC)c1nc(C)cc(OP(=S)(OC)OC)n1 [Methylperimiphos],Decomposition time (Average life),"aqueous media, pH 5",7 days
same,Decomposition time (Average life),"aqueous media, pH 8",5 days
O=C(NC(=O)c1c(F)cccc1F)Nc1ccc(Cl)cc1 [Diflubenzuron],"Behaviour at pH 9, in words","aqueous media, pH 9",Hydrolyzes
C=CCC1=C(C)C(OC(=O)C2C(C=C(C)C)C2(C)C)CC1=O [D-allethrin],Decomposition time (Average life),"aqueous media, pH 7",500 days
same,Decomposition time (Average life),"aqueous media, pH 9",(4.3 days)
same,"Stability in aqueous media, in words",,Stable at a pH 5 after 31 days
CC1(C)[C@H](C(=O)O[C@H](C#N)c2cccc(Oc3ccccc3)c2)[C@@H]1C=C(Br)Br [deltamethrin],Decomposition time (Average life),"aqueous media, pH 7",0.33 days
same,"Stability in aqueous media, in words",,more stable in medium acid solutions
CCOP(=S)(OCC)Oc1nc(Cl)c(Cl)cc1Cl [Chlorpyrifos],Decomposition time (Average life),"aqueous media, pH 10",7 days
CCOP(=S)(OCC)Oc1cc(C)nc(C(C)C)n1 [Diazinon],Decomposition time (Average life),"aqueous media, pH 5",31 days
same,Decomposition time (Average life),"aqueous media, pH 7.5",185 days
same,Decomposition time (Average life),"aqueous media, pH 9",136 days
CC1(C)C(C=C(Cl)Cl)C1C(=O)OC(C#N)c1cccc(Oc2ccccc2)c1 (stereo not shown) [cypermethrin],Decomposition time (Average life),"aqueous media, pH 9",7 days
